Source: patent US10485235B2, “Aryloxypyrimidinyl ethers as herbicides” (FMC Corporation, priority 2015, dated 2019)

tested on: pigweed (Amaranthus retroflexus); experiment: Test A postemergence, pigweed; type: in vivo; conditions: 31 g ai/ha, postemergence; 0 to 100 scale, 0 is no effect, 100 is complete control; approximately 10 days
Description: (§1) Seeds of plant species selected from barnyardgrass (Echinochloa crus-galli), kochia (Kochia scoparia), ragweed (common ragweed, Ambrosia elatior), ryegrass, Italian (Italian ryegrass, Lolium multiflorum), foxtail, giant (giant foxtail, Setaria faberii), and pigweed (Amaranthus retroflexus), were planted into a blend of loam soil and sand and treated preemergence with a directed soil spray using test chemicals formulated in a non-phytotoxic solvent mixture which included a surfactant.
(§2) At the same time, plants selected from these weed species and also wheat (Triticum aestivum), corn (Zea mays), blackgrass (Alopecurus myosuroides), and galium (catchweed bedstraw, Galium aparine), were planted in pots containing the same blend of loam soil and sand and treated with postemergence applications of test chemicals formulated in the same manner. Plants ranged in height from 2 to 10 cm and were in the one- to two-leaf stage for the postemergence treatment. Treated plants and untreated controls were maintained in a greenhouse for approximately 10 days, after which time all treated plants were compared to untreated controls and visually evaluated for injury. Plant response ratings, summarized in Table A, are based on a 0 to 100 scale where 0 is no effect and 100 is complete control. A dash (—) response means no test result.

Row | SMILES | Plant response rating, Pigweed
1 | Cl/C=C/COc1c(Cl)cccc1Oc1ncc(Cl)cn1 [Compound 48] | 50

same assay, conditions: 125 g ai/ha, postemergence; 0 to 100 scale, 0 is no effect, 100 is complete control; approximately 10 days

Row | SMILES | Plant response rating, Pigweed
2 | Cl/C=C/COc1c(Cl)cccc1Oc1ncc(Cl)cn1 [Compound 48] | 80

tested on: blackgrass (Alopecurus myosuroides); experiment: Test A postemergence, blackgrass; type: in vivo; conditions: 31 g ai/ha, postemergence; 0 to 100 scale, 0 is no effect, 100 is complete control; approximately 10 days
Description: as §1, §2

Row | SMILES | Plant response rating, Blackgrass
3 | Cl/C=C/COc1c(Cl)cccc1Oc1ncc(Cl)cn1 [Compound 48] | 0

same assay, conditions: 125 g ai/ha, postemergence; 0 to 100 scale, 0 is no effect, 100 is complete control; approximately 10 days

Row | SMILES | Plant response rating, Blackgrass
4 | Cl/C=C/COc1c(Cl)cccc1Oc1ncc(Cl)cn1 [Compound 48] | 10

tested on: barnyardgrass (Echinochloa crus-galli); experiment: Test A postemergence, barnyardgrass; type: in vivo; conditions: 31 g ai/ha, postemergence; 0 to 100 scale, 0 is no effect, 100 is complete control; approximately 10 days
Description: as §1, §2

Row | SMILES | Plant response rating, Barnyardgrass
5 | Cl/C=C/COc1c(Cl)cccc1Oc1ncc(Cl)cn1 [Compound 48] | 10

same assay, conditions: 125 g ai/ha, postemergence; 0 to 100 scale, 0 is no effect, 100 is complete control; approximately 10 days

Row | SMILES | Plant response rating, Barnyardgrass
6 | Cl/C=C/COc1c(Cl)cccc1Oc1ncc(Cl)cn1 [Compound 48] | 50

tested on: rice (Oryza sativa); experiment: Test B flooded paddy test, rice; type: in vivo; conditions: 250 g ai/ha, Flood; visual rating after 13 to 15 days; scale 0 to 100, 0 is no effect, 100 is complete control
Procedure: (§3) Plant species in the flooded paddy test selected from rice (Oryza sativa), sedge, umbrella (small-flower umbrella sedge, Cyperus difformis), ducksalad (Heteranthera limosa), and barnyardgrass (Echinochloa crus-galli) were grown to the 2-leaf stage for testing. At time of treatment, test pots were flooded to 3 cm above the soil surface, treated by application of test compounds directly to the paddy water, and then maintained at that water depth for the duration of the test. Treated plants and controls were maintained in a greenhouse for 13 to 15 days, after which time all species were compared to controls and visually evaluated. Plant response ratings, summarized in Table B, are based on a scale of 0 to 100 where 0 is no effect and 100 is complete control. A dash (—) response means no test result.

Row | SMILES | Plant response rating, Rice
7 | Cl/C=C/COc1c(Cl)cccc1Oc1ncc(Cl)cn1 [Compound 48] | 20

tested on: foxtail, giant (giant foxtail, Setaria faberii); experiment: Test A preemergence, giant foxtail; type: in vivo; conditions: Preemergence, 31 g ai/ha; 0 to 100 scale (0 no effect, 100 complete control)
Description: as §1, §2

Row | SMILES | Plant response rating, Foxtail, Giant
8 | Cl/C=C/COc1c(Cl)cccc1Oc1ncc(Cl)cn1 [Compound 48] | 30

same assay, conditions: Preemergence, 125 g ai/ha; 0 to 100 scale (0 no effect, 100 complete control)

Row | SMILES | Plant response rating, Foxtail, Giant
9 | Cl/C=C/COc1c(Cl)cccc1Oc1ncc(Cl)cn1 [Compound 48] | 80

tested on: galium (catchweed bedstraw, Galium aparine); experiment: Test A postemergence, galium; type: in vivo; conditions: 31 g ai/ha, postemergence; 0 to 100 scale, 0 is no effect, 100 is complete control; approximately 10 days
Description: as §1, §2

Row | SMILES | Plant response rating, Galium
10 | Cl/C=C/COc1c(Cl)cccc1Oc1ncc(Cl)cn1 [Compound 48] | 10

same assay, conditions: 125 g ai/ha, postemergence; 0 to 100 scale, 0 is no effect, 100 is complete control; approximately 10 days

Row | SMILES | Plant response rating, Galium
11 | Cl/C=C/COc1c(Cl)cccc1Oc1ncc(Cl)cn1 [Compound 48] | 30

tested on: foxtail, giant (giant foxtail, Setaria faberii); experiment: Test A postemergence, giant foxtail; type: in vivo; conditions: 31 g ai/ha, postemergence; 0 to 100 scale, 0 is no effect, 100 is complete control; approximately 10 days
Description: as §1, §2

Row | SMILES | Plant response rating, Foxtail, Giant
12 | Cl/C=C/COc1c(Cl)cccc1Oc1ncc(Cl)cn1 [Compound 48] | 20

same assay, conditions: 125 g ai/ha, postemergence; 0 to 100 scale, 0 is no effect, 100 is complete control; approximately 10 days

Row | SMILES | Plant response rating, Foxtail, Giant
13 | Cl/C=C/COc1c(Cl)cccc1Oc1ncc(Cl)cn1 [Compound 48] | 60

tested on: ragweed (common ragweed, Ambrosia elatior); experiment: Test A postemergence, ragweed; type: in vivo; conditions: 31 g ai/ha, postemergence; 0 to 100 scale, 0 is no effect, 100 is complete control; approximately 10 days
Description: as §1, §2

Row | SMILES | Plant response rating, Ragweed
14 | Cl/C=C/COc1c(Cl)cccc1Oc1ncc(Cl)cn1 [Compound 48] | 0

same assay, conditions: 125 g ai/ha, postemergence; 0 to 100 scale, 0 is no effect, 100 is complete control; approximately 10 days

Row | SMILES | Plant response rating, Ragweed
15 | Cl/C=C/COc1c(Cl)cccc1Oc1ncc(Cl)cn1 [Compound 48] | 10

tested on: pigweed (Amaranthus retroflexus); experiment: Test A preemergence, pigweed; type: in vivo; conditions: Preemergence, 31 g ai/ha; 0 to 100 scale (0 no effect, 100 complete control)
Description: as §1, §2

Row | SMILES | Plant response rating, Pigweed
16 | Cl/C=C/COc1c(Cl)cccc1Oc1ncc(Cl)cn1 [Compound 48] | 0

same assay, conditions: Preemergence, 125 g ai/ha; 0 to 100 scale (0 no effect, 100 complete control)

Row | SMILES | Plant response rating, Pigweed
17 | Cl/C=C/COc1c(Cl)cccc1Oc1ncc(Cl)cn1 [Compound 48] | 60

tested on: kochia (Kochia scoparia); experiment: Test A preemergence, kochia; type: in vivo; conditions: Preemergence, 31 g ai/ha; 0 to 100 scale (0 no effect, 100 complete control)
Description: as §1, §2

Row | SMILES | Plant response rating, Kochia
18 | Cl/C=C/COc1c(Cl)cccc1Oc1ncc(Cl)cn1 [Compound 48] | 0

same assay, conditions: Preemergence, 125 g ai/ha; 0 to 100 scale (0 no effect, 100 complete control)

Row | SMILES | Plant response rating, Kochia
19 | Cl/C=C/COc1c(Cl)cccc1Oc1ncc(Cl)cn1 [Compound 48] | 80

tested on: ryegrass, Italian (Italian ryegrass, Lolium multiflorum); experiment: Test A preemergence, Italian ryegrass; type: in vivo; conditions: Preemergence, 31 g ai/ha; 0 to 100 scale (0 no effect, 100 complete control)
Description: as §1, §2

Row | SMILES | Plant response rating, Ryegrass, Italian
20 | Cl/C=C/COc1c(Cl)cccc1Oc1ncc(Cl)cn1 [Compound 48] | 0

same assay, conditions: Preemergence, 125 g ai/ha; 0 to 100 scale (0 no effect, 100 complete control)

Row | SMILES | Plant response rating, Ryegrass, Italian
21 | Cl/C=C/COc1c(Cl)cccc1Oc1ncc(Cl)cn1 [Compound 48] | 10

tested on: wheat (Triticum aestivum); experiment: Test A postemergence, wheat; type: in vivo; conditions: 31 g ai/ha, postemergence; 0 to 100 scale, 0 is no effect, 100 is complete control; approximately 10 days
Description: as §1, §2

Row | SMILES | Plant response rating, Wheat
22 | Cl/C=C/COc1c(Cl)cccc1Oc1ncc(Cl)cn1 [Compound 48] | 0

same assay, conditions: 125 g ai/ha, postemergence; 0 to 100 scale, 0 is no effect, 100 is complete control; approximately 10 days

Row | SMILES | Plant response rating, Wheat
23 | Cl/C=C/COc1c(Cl)cccc1Oc1ncc(Cl)cn1 [Compound 48] | 10

tested on: barnyardgrass (Echinochloa crus-galli); experiment: Test B flooded paddy test, barnyardgrass; type: in vivo; conditions: 250 g ai/ha, Flood; visual rating after 13 to 15 days; scale 0 to 100, 0 is no effect, 100 is complete control
Procedure: as §3

Row | SMILES | Plant response rating, Barnyardgrass
24 | Cl/C=C/COc1c(Cl)cccc1Oc1ncc(Cl)cn1 [Compound 48] | 20

tested on: sedge, umbrella (small-flower umbrella sedge, Cyperus difformis); experiment: Test B flooded paddy test, umbrella sedge; type: in vivo; conditions: 250 g ai/ha, Flood; visual rating after 13 to 15 days; scale 0 to 100, 0 is no effect, 100 is complete control
Procedure: as §3

Row | SMILES | Plant response rating, Sedge, Umbrella
25 | Cl/C=C/COc1c(Cl)cccc1Oc1ncc(Cl)cn1 [Compound 48] | 70

tested on: ragweed (common ragweed, Ambrosia elatior); experiment: Test A preemergence, ragweed; type: in vivo; conditions: Preemergence, 31 g ai/ha; 0 to 100 scale (0 no effect, 100 complete control)
Description: as §1, §2

Row | SMILES | Plant response rating, Ragweed
26 | Cl/C=C/COc1c(Cl)cccc1Oc1ncc(Cl)cn1 [Compound 48] | 0

same assay, conditions: Preemergence, 125 g ai/ha; 0 to 100 scale (0 no effect, 100 complete control)

Row | SMILES | Plant response rating, Ragweed
27 | Cl/C=C/COc1c(Cl)cccc1Oc1ncc(Cl)cn1 [Compound 48] | 0

tested on: barnyardgrass (Echinochloa crus-galli); experiment: Test A preemergence, barnyardgrass; type: in vivo; conditions: Preemergence, 31 g ai/ha; 0 to 100 scale (0 no effect, 100 complete control)
Description: as §1, §2

Row | SMILES | Plant response rating, Barnyardgrass
28 | Cl/C=C/COc1c(Cl)cccc1Oc1ncc(Cl)cn1 [Compound 48] | 10

same assay, conditions: Preemergence, 125 g ai/ha; 0 to 100 scale (0 no effect, 100 complete control)

Row | SMILES | Plant response rating, Barnyardgrass
29 | Cl/C=C/COc1c(Cl)cccc1Oc1ncc(Cl)cn1 [Compound 48] | 60

tested on: ducksalad (Heteranthera limosa); experiment: Test B flooded paddy test, ducksalad; type: in vivo; conditions: 250 g ai/ha, Flood; visual rating after 13 to 15 days; scale 0 to 100, 0 is no effect, 100 is complete control
Procedure: as §3

Row | SMILES | Plant response rating, Ducksalad
30 | Cl/C=C/COc1c(Cl)cccc1Oc1ncc(Cl)cn1 [Compound 48] | 70

tested on: corn (Zea mays); experiment: Test A postemergence, corn; type: in vivo; conditions: 31 g ai/ha, postemergence; 0 to 100 scale, 0 is no effect, 100 is complete control; approximately 10 days
Description: as §1, §2

Row | SMILES | Plant response rating, Corn
31 | Cl/C=C/COc1c(Cl)cccc1Oc1ncc(Cl)cn1 [Compound 48] | 10

same assay, conditions: 125 g ai/ha, postemergence; 0 to 100 scale, 0 is no effect, 100 is complete control; approximately 10 days

Row | SMILES | Plant response rating, Corn
32 | Cl/C=C/COc1c(Cl)cccc1Oc1ncc(Cl)cn1 [Compound 48] | 20

tested on: kochia (Kochia scoparia); experiment: Test A postemergence, kochia; type: in vivo; conditions: 31 g ai/ha, postemergence; 0 to 100 scale, 0 is no effect, 100 is complete control; approximately 10 days
Description: as §1, §2

Row | SMILES | Plant response rating, Kochia
33 | Cl/C=C/COc1c(Cl)cccc1Oc1ncc(Cl)cn1 [Compound 48] | 60

same assay, conditions: 125 g ai/ha, postemergence; 0 to 100 scale, 0 is no effect, 100 is complete control; approximately 10 days

Row | SMILES | Plant response rating, Kochia
34 | Cl/C=C/COc1c(Cl)cccc1Oc1ncc(Cl)cn1 [Compound 48] | 100

tested on: ryegrass, Italian (Italian ryegrass, Lolium multiflorum); experiment: Test A postemergence, Italian ryegrass; type: in vivo; conditions: 31 g ai/ha, postemergence; 0 to 100 scale, 0 is no effect, 100 is complete control; approximately 10 days
Description: as §1, §2

Row | SMILES | Plant response rating, Ryegrass, Italian
35 | Cl/C=C/COc1c(Cl)cccc1Oc1ncc(Cl)cn1 [Compound 48] | 0

same assay, conditions: 125 g ai/ha, postemergence; 0 to 100 scale, 0 is no effect, 100 is complete control; approximately 10 days

Row | SMILES | Plant response rating, Ryegrass, Italian
36 | Cl/C=C/COc1c(Cl)cccc1Oc1ncc(Cl)cn1 [Compound 48] | 0
